This is an account of results in patent US20060211698A1, “Bicyclic heteroaryl derivatives for treating viruses” (Genelabs, Inc., priority 2005, published 2006).

For this assay, the target named is T1, HCV-NS5b (Hepatitis C virus genotype 1b, UniProt Q9WMX2).
T1 construct: The cloned fragment was missing the C terminus 21 amino acid residues; (His)6 (C); made in house; host or cells: XL-1 cells (E. coli)
Put plainly: HCV-NS5b Enzyme Assay. The class given is biochemical. As to conditions: 1 μM test compound; incorporation of [3H]-UTP, 37° C., 2 hours. In outline: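 The NS5B construct lacks its C-terminal 21 residues, carries a C-terminal His6 tag and was expressed in E. coli. [^3H]-UTP incorporation on a biotinylated HCV heteropolymeric template (10 ng/μL) with 10 μM each NTP, pH 7.5, 5 mM MgCl2 and 5% DMSO ran 2 h at 37° C and was read by SPA scintillation. IC50s came from 10-point 2-fold series starting at 50 or 2 μM.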
In general, inhibition refers to the change of the read-out against control, counted positive when it falls. In the case of `COC(=O)c1ccc2c(C3CCCCC3)c(-c3ccc4nc(-c5cc(OC)ccc5-c5ccc(Cl)cc5)ccc4c3)n(CC(=O)O)c2c1` [Compound 201, 1-carboxymethyl-2-[2-(4′-chloro-4-methoxy-biphenyl-2-yl)-quinolin-6-yl]-3-cyclohexyl-1H-indole-6-carboxylic acid methyl ester], the inhibition at 1 µM turned out to be 77.7%.

`O=C(O)c1ccc2c(C3CCCCC3)c(-c3ccc4nc(-c5ccc(F)c(F)c5)ccc4c3)n(CC(=O)N3CCOCC3)c2c1` [Compound 266, 3-Cyclohexyl-2-[2-(3,4-difluoro-phenyl)-quinolin-6-yl]-1-(2-morpholin-4-yl-2-oxo-ethyl)-1H-indole-6-carboxylic acid] registered an inhibition at 1 µM of 97.1%.

`COc1ncccc1-c1ccc(-c2c(C3CCCCC3)c3ccc(C(=O)O)cc3n2CC(=O)N2CCOCC2)cc1` [Compound 304, 3-Cyclohexyl-2-[4-(2-methoxy-pyridin-3-yl)-phenyl]-1-(2-morpholin-4-yl-2-oxo-ethyl)-1H-indole-6-carboxylic acid] showed an inhibition at 1 µM of 98.5%.

For `O=C(O)c1ccc2c(C3CCCCC3)c(-c3ccc4nc(-c5ccccc5F)ccc4c3)n(CC(=O)N3CCOCC3)c2c1` [Compound 255, 3-Cyclohexyl-2-[2-(2-fluoro-phenyl)-quinolin-6-yl]-1-(2-morpholin-4-yl-2-oxo-ethyl)-1H-indole-6-carboxylic acid], the inhibition at 1 µM is 97.4%.

The molecule `O=C(O)c1ccc2c(C3CCCCC3)c(-c3ccc(-c4ccccc4F)cc3)n(CC(=O)N3CCOCC3)c2c1` [Compound 302, 3-Cyclohexyl-2-(2′-fluoro-biphenyl-4-yl)-1-(2-morpholin-4-yl-2-oxo-ethyl)-1H-indole-6-carboxylic acid] showed an inhibition at 1 µM of 99.3%.

Regarding `Cc1nc(C)c(C2CCc3cc(-c4c(C5CCCCC5)c5ccc(C(=O)O)cc5n4CC(=O)N4CCOCC4)ccc3N2)s1` (stereo not drawn) [Compound 323, 3-Cyclohexyl-2-[2-(2,4-dimethyl-thiazol-5-yl)-1,2,3,4-tetrahydro-quinolin-6-yl]-1-(2-morpholin-4-yl-2-oxo-ethyl)-1H-indole-6-carboxylic acid], at 1 µM the inhibition was 97.6%.

`Cc1nc(C)c(-c2ccc3cc(-c4c(C5CCCCC5)c5ccc(C(=O)O)cc5n4Cc4ccccc4)ccc3n2)s1` [Compound 287, 1-Benzyl-3-cyclohexyl-2-[2-(2,4-dimethyl-thiazol-5-yl)-quinolin-6-yl]-1H-indole-6-carboxylic acid] registered an inhibition at 1 µM of 95.2%.

Turning to `O=C(O)c1ccc2c(C3CCCCC3)c(-c3ccc4nc(-c5ccccc5)cnc4c3)n(CC(=O)N3CCOCC3)c2c1` [Compound 330, 3-Cyclohexyl-1-(2-morpholin-4-yl-2-oxo-ethyl)-2-(2-phenyl-quinoxalin-6-yl)-1H-indole-6-carboxylic acid], the inhibition at 1 µM came out at 96.8%.

For the molecule `CCOc1ncc(-c2ccc3cc(-c4c(C5CCCCC5)c5ccc(C(=O)O)cc5n4CC(=O)N4CCOCC4)ccc3n2)c(C)n1` [Compound 269, 3-Cyclohexyl-2-[2-(2-ethoxy-4-methyl-pyrimidin-5-yl)-quinolin-6-yl]-1-(2-morpholin-4-yl-2-oxo-ethyl)-1H-indole-6-carboxylic acid], the inhibition at 1 µM came to 93.6%.

`O=C(O)c1ccc2c(C3CCCCC3)c(-c3ccc4nc(-c5ccncc5)ccc4c3)n(CC(=O)N3CCOCC3)c2c1` [Compound 325, 3-Cyclohexyl-1-(2-morpholin-4-yl-2-oxo-ethyl)-2-(2-pyridin-4-yl-quinolin-6-yl)-1H-indole-6-carboxylic acid] yielded an inhibition at 1 µM of 93.6%.

Take `COc1ccc(-c2ccc(Cl)cc2)c(-c2ccc3cc(-c4c(C5CCCCC5)c5ccc(C(=O)O)cc5n4CC(=O)O)ccc3n2)c1` [Compound 202, 1-carboxymethyl-2-[2-(4′-chloro-4-methoxy-biphenyl-2-yl)-quinolin-6-yl]-3-cyclohexyl-1H-indole-6-carboxylic acid]: the inhibition at 1 µM is 98.3%.

Take `COc1cccc(Cn2c(-c3ccc4nc(-c5sc(C)nc5C)ccc4c3)c(C3CCCCC3)c3ccc(C(=O)O)cc32)c1` [Compound 293, 3-Cyclohexyl-2-[2-(2,4-dimethyl-thiazol-5-yl)-quinolin-6-yl]-1-(3-methoxy-benzyl)-1H-indole-6-carboxylic acid]: the inhibition at 1 µM was found to be 69.2%.

Regarding `O=C(O)c1ccc2c(C3CCCCC3)c(-c3ccc4nc(-c5cccs5)ccc4c3)n(CC(=O)N3CCOCC3)c2c1` [Compound 224, 1-[N-morpholinocarbonylmethyl]-2-[2-thien-2-ylquinolin-6-yl]-3-cyclohexyl-1H-indole-6-carboxylic acid], the “% inhibition @ 1 μM” value was determined as 98.2%.

`Cc1cccc(-c2ccc(-c3c(C4CCCCC4)c4ccc(C(=O)O)cc4n3CC(=O)N3CCOCC3)cc2)c1` [Compound 312, 3-Cyclohexyl-2-(3′-methyl-biphenyl-4-yl)-1-(2-morpholin-4-yl-2-oxo-ethyl)-1H-indole-6-carboxylic acid] returned an inhibition at 1 µM of 99.5%.

`Cc1nc(C)c(-c2ccc3cc(-c4c(C5CCCCC5)c5ccc(C(=O)O)cc5n4CC(=O)N4CCC(C)CC4)ccc3n2)s1` [Compound 280, 3-Cyclohexyl-2-[2-(2,4-dimethyl-thiazol-5-yl)-quinolin-6-yl]-1-[2-(4-methyl-piperidin-1-yl)-2-oxo-ethyl]-1H-indole-6-carboxylic acid] displayed an inhibition at 1 µM of 97.7%.

For the molecule `O=C(O)c1ccc2c(C3CCCCC3)c(-c3ccc4nc(-c5cnccn5)ccc4c3)n(CC(=O)N3CCOCC3)c2c1` [Compound 218, 1-[N-morpholinocarbonylmethyl]-2-[2-(pyrazin-2-yl)-quinolin-6-yl]-3-cyclohexyl-1H-indole-6-carboxylic acid], the “% inhibition @ 1 μM” value came out at 96.2%.

As for `COc1ccc(-c2ccc(Cl)cc2)c(-c2ccc3cc(-c4c(C5CCCCC5)c5ccc(C(=O)O)cc5n4CC(=O)N(C)C)ccc3n2)c1` [Compound 206, 1-[N,N-dimethylaminocarbonyl-methyl]-2-[2-(4′-chloro-4-methoxy-biphen-2-yl)-quinolin-6-yl]-3-cyclohexyl-1H-indole-6carboxylic acid], the inhibition at 1 µM came out at 99%.

The molecule `NC(=O)c1cc(-c2ccc3cc(-c4c(C5CCCCC5)c5ccc(C(=O)O)cc5n4CC(=O)O)ccc3n2)ccc1O` [Compound 208, 1-carboxylmethyl-2-[2-(3-Carbamoyl-4-hydroxy-phenyl)-quinolin-6-yl]-3-cyclohexyl-1H-indole-6-carboxylic acid] returned an inhibition at 1 µM of 84.5%.

For the molecule `Cc1nc(C)c(-c2ccc3cc(-c4c(C5CCCCC5)c5ccc(C(=O)O)cc5n4Cc4ccncc4)ccc3n2)s1` [Compound 289, 3-Cyclohexyl-2-[2-(2,4-dimethyl-thiazol-5-yl)-quinolin-6-yl]-1-pyridin-4-ylmethyl-1H-indole-6-carboxylic acid], the inhibition at 1 µM was determined as 95.7%.

With `Cc1ccc(-c2ccc3cc(-c4c(C5CCCCC5)c5ccc(C(=O)O)cc5n4CC(=O)N4CCOCC4)ccc3n2)s1` [Compound 235, 3-Cyclohexyl-2-[2-(5-methyl-thiophen-2-yl)-quinolin-6-yl]-1-(2-morpholin-4-yl-2-oxo-ethyl)-1H-indole-6-carboxylic acid], at 1 µM the inhibition was 95.5%.

On to `COc1ccc(F)c(-c2ccc3cc(-c4c(C5CCCCC5)c5ccc(C(=O)O)cc5n4CC(=O)N4CCOCC4)ccc3n2)c1` [Compound 270, 3-Cyclohexyl-2-[2-(2-fluoro-5-methoxy-phenyl)-quinolin-6-yl]-1-(2-morpholin-4-yl-2-oxo-ethyl)-1H-indole-6-carboxylic acid], for which testing at 1 µM gave an inhibition of 95%.

Molecule `Cc1nc(C)c(-c2ccc3cc(-c4c(C5CCCCC5)c5ccc(C(=O)O)cc5n4CC(=O)N4CCC(C(=O)O)CC4)ccc3n2)s1` [Compound 241, 1-[2-(4-Carboxy-piperidin-1-yl)-2-oxo-ethyl]-3-cyclohexyl-2-[2-(2,4-dimethyl-thiazol-5-yl)-quinolin-6-yl]-1H-indole-6-carboxylic acid] gave an inhibition at 1 µM of 94.1%.

Molecule `COc1cccc(-c2ccc(-c3c(C4CCCCC4)c4ccc(C(=O)O)cc4n3CC(=O)N3CCOCC3)cc2)c1` [Compound 309, 3-Cyclohexyl-2-(3′-methoxy-biphenyl-4-yl)-1-(2-morpholin-4-yl-2-oxo-ethyl)-1H-indole-6-carboxylic acid] returned an inhibition at 1 µM of 98.8%.

Consider `Cc1nccnc1-c1ccc2cc(-c3c(C4CCCCC4)c4ccc(C(=O)O)cc4n3CC(=O)N3CCOCC3)ccc2n1` [Compound 268, 3-Cyclohexyl-2-[2-(3-methyl-pyrazin-2-yl)-quinolin-6-yl]-1-(2-morpholin-4-yl-2-oxo-ethyl)-1H-indole-6-carboxylic acid], for which at 1 µM the inhibition was 96.1%.

On to `O=C(O)c1ccc2c(C3CCCCC3)c(-c3ccc4nc(-c5cccc([N+](=O)[O-])c5)ccc4c3)n(CC(=O)N3CCOCC3)c2c1` [Compound 256, 3-Cyclohexyl-2-[2-(3-nitro-phenyl)-quinolin-6-yl]-1-(2-morpholin-4-yl-2-oxo-ethyl)-1H-indole-6-carboxylic acid], for which the inhibition at 1 µM amounted to 98.1%.

In turn, `Cc1nc(C)c(-c2ccc3cc(-c4c(C5CCCCC5)c5ccc(C(=O)O)c(C)c5n4CC(=O)N4CCOCC4)ccc3n2)s1` [Compound 238, 3-Cyclohexyl-2-[2-(2,4-dimethyl-thiazol-5-yl)-quinolin-6-yl]-7-methyl-1-(2-oxo-2-morpholino-4-yl-ethyl)-1H-indole-6-carboxylic acid] came in with an inhibition at 1 µM of 85.6%.

Turning to `Cc1ccc(-c2ccc3cc(-c4c(C5CCCCC5)c5ccc(C(=O)O)cc5n4CC(=O)N4CCOCC4)ccc3n2)cc1` [Compound 252, 3-Cyclohexyl-1-(2-morpholin-4-yl-2-oxo-ethyl)-2-(2-p-tolyl-quinolin-6-yl)-1H-indole-6-carboxylic acid], 1 µM produced 95% inhibition.
